From US20240390317A1, “COMBINATION TREATMENT AND/OR PREVENTION OF CARDIAC DISEASES IN NON-HUMAN MAMMALS COMPRISING ONE OR MORE SGLT-2 INHIBITORS AND PIMOBENDAN AND/OR TELMISARTAN” (BOEHRINGER INGELHEIM VETMEDICA GMBH, priority 2023, published 2024)

Experiments:
[1] = test system: canine atrial fibrillation model; settings: cited from earlier work
[2] = test system: mitral regurgitation-induced myocardial dysfunction; settings: cited from earlier work
[3] = test system: non-diabetic heart failure; settings: by enhancing myocardial energetics; cited from earlier work
[4] = test system: adults with heart failure and reduced or preserved ejection fraction, with and without diabetes; settings: cited from earlier work
[5] = test system: dogs with a moderate degree of tachypacing-induced heart-failure [dilated cardiomyopathy (DCM) model]; assay: Example 17 laboratory study (DCM model); format: in vivo, beagle dogs; settings: for creatinine levels / enhancements of diastolic function and performance (i.e., IVRT, E, E′-ave) / enhancements of values indicative of systolic function and performance (i.e., EF, FAS, Simpson EF, s′ wave, LVOT VTI, SV, CO, or SAX Strain) / urine glucose: tachypacing DCM model, three-month dosing
Protocol: A laboratory study is conducted to evaluate the effects of the SGLT2 inhibitor Velagliflozin with Pimobendan compared to Pimobendan alone and Velagliflozin alone in dogs with a moderate degree of tachypacing-induced heart-failure [dilated cardiomyopathy (DCM) model]. The study involves 12 beagle dogs, divided into three treatment groups, each containing four dogs, in two dosing phases (totaling eight dogs per group). The treatment groups are Pimobendan, Velagliflozin, and a combination of both (Pimobendan+Velagliflozin).
The dogs are implanted with a pacing generator in the right ventricle (Abbott-Johnson K et al., 2021) and subjected to two rounds of dosing for three months each. The heart failure is induced to a moderate degree (EF=˜40-45%) before the start of each dosing round, with the pacing rate maintained throughout the three-month dosing period. After each round, a washout period of about 21-28 days is given before the next round of dosing begins.
Various data are collected throughout the study, including 6-minute walk test, blood and urine analysis, and echocardiography data. The dogs undergo an anesthetized recovery procedure at the end of each three-month round, where systemic hemodynamics are recorded. A single dose of dobutamine is also administered to measure functional reserve at the end of each 3-month period.

[6] = test system: Dogs With Mitral Valve Disease (MVD); assay: Example 16 exploratory clinical field trial, velagliflozin plus pimobendan vs pimobendan; format: in vivo, dog
Protocol: The described study is a prospective, baseline controlled, unblinded, open-label, multi-site exploratory clinical field trial. Client owned dogs diagnosed with MVD are randomized at different sites to either a pimobendan or a velagliflozin plus pimobendan treatment group. Eight dogs could be successfully enrolled. […] The clinical field trial is further ongoing.
The dogs that enter the study are evaluated regularly including a full physical examination including bodyweight, blood pressure, auscultation of the cardiovascular system, thoracic radiographs to assess heart size, pulmonary edema and congestion, standard echocardiography, ECG, blood and urine evaluation.
The cardiovascular history is evaluated assessing the date of MVD diagnosis and whether there is a history of heart failure. An owner questionnaire is compiled on a regular basis during the study to provide an overview on the overall condition of the dogs, the respiratory rate per minute at resting and the exercise tolerance during the last seven days of treatment.
The dogs included must be diagnosed with MVD stage B2 or stage C via physical examination and echocardiography. Variables of interest are all clinical parameters evaluated in addition to laboratory values, blood pressure, number of events (death or hospitalization for heart failure or euthanasia), the time-to-event duration, the adjustment of diuretic treatment, owner questionnaire data, x-ray results and overall disease progression (requiring additional, prohibited cardiac treatment).
During the ongoing field trial three dogs are receiving a combined velagliflozin (0.5 mg/kg bodyweight orally once daily) and pimobendan treatment (daily dose of 0.5 mg/kg bodyweight orally divided into two portions that are not necessarily equal).
During the ongoing field trial four dogs are receiving a pimobendan only treatment (daily dose of 0.5 mg/kg bodyweight orally divided into two portions that are not necessarily equal).

Compound: Cc1ccc([C@@H]2O[C@H](CO)[C@@H](O)[C@H](O)[C@H]2O)cc1Cc1ccc(-c2ccc(F)cc2)s1 [canagliflozin, Canagliflozin]
- atrial remodeling [1]: suppresses

Compound: CCOc1ccc(Cc2cc([C@@H]3O[C@H](CO)[C@@H](O)[C@H](O)[C@H]3O)ccc2Cl)cc1 [dapagliflozin, Dapagliflozin]
- arrhythmogenesis [2]: mitigates
- cardiac hemodynamics [2]: improves

Compound: OC[C@H]1O[C@@H](c2ccc(Cl)c(Cc3ccc(O[C@H]4CCOC4)cc3)c2)[C@H](O)[C@@H](O)[C@@H]1O [empagliflozin, Empagliflozin]
- adverse left ventricular remodeling [3]: ameliorates
- risk for the composite endpoint of cardiovascular death or hospitalization due to heart failure [4]: reduced

Compound: COc1ccc(-c2nc3cc(C4=NNC(=O)CC4C)ccc3[nH]2)cc1 (stereo not shown) [pimobendan, 4,5-dihydro-6-[2-(4-methoxyphenyl)-1H-benzimidazol-5-yl]-5-methyl-3(2H)-pyridazinone]
- functional support with enhanced systolic and diastolic performance ([5]; for three months): clear and robust functional support
- creatinine levels [5]: does not affect
- enhancements of diastolic function and performance (i.e., IVRT, E, E′-ave) [5]: ~20%
- enhancements of values indicative of systolic function and performance (i.e., EF, FAS, Simpson EF, s′ wave, LVOT VTI, SV, CO, or SAX Strain) [5]: ~30%
- urine glucose [5]: does not affect
- MINE score ([6]; pimobendan only (0.5 mg/kg/day), first dog, Day 88, before: seven, progresses from moderate to severe disease state): eight
- other parameters measured (i.e. heart murmur) ([6]; pimobendan only, first dog): mainly unchanged
- Echo Parameter LA/Ao ([6]; pimobendan only, fourth dog, Day 42, Screening 1.88): 1.61
- MINE score ([6]; pimobendan only, fourth dog, Day 42, Screening: eight): six
- overall condition (owner score) ([6]; pimobendan only, fourth dog, Day 42, Screening: neutral): good
- exercise tolerance in the last 7 days (owner score) ([6]; pimobendan only, fourth dog, Day 42, Screening: very poor): good
- overall condition and exercise tolerance in the last 7 days (owner report) ([6]; pimobendan only, second dog): improvement
- Echo-Parameter LA/Ao ([6]; pimobendan only, second dog, Day 55, Screening 2.14): 1.96
- MINE score (echocardiographic parameters) ([6]; pimobendan only, second dog, Day 55, stable, severely diseased): eight
- Echo-Parameter LA/Ao ([6]; pimobendan only, third dog, Day 48, Screening 1.60): 1.53
- overall condition of the owner score ([6]; pimobendan only, third dog, Day 48, Screening: neutral): good

Compound: N#Cc1ccc([C@@H]2O[C@H](CO)[C@@H](O)[C@H](O)[C@H]2O)cc1Cc1ccc(C2CC2)cc1 [velagliflozin, Velagliflozin]
- creatinine levels [5]: lower
- enhancements of diastolic function and performance (i.e., IVRT, E, E′-ave) [5]: little-to-no support
- enhancements of values indicative of systolic function and performance (i.e., EF, FAS, Simpson EF, s′ wave, LVOT VTI, SV, CO, or SAX Strain) [5]: little-to-no support
- urine glucose [5]: elevated
